The results in this text go back to publication PMC8728441, “Biosynthesis of the redox cofactor mycofactocin is controlled by the transcriptional regulator MftR and induced by long-chain acyl-CoA species” (The Journal of Biological Chemistry, 2021).

As a reminder, the pKd is −log10 of the Kd, conventionally taken in molar units.

One test relates to MftR–Omft complex. Kind of test: Competitive EMSA screen for effectors of MftR. The test is classed as binding, Mycobacterium smegmatis mc^2155. The following applies: 6-FAM Omft 0.5 μM, MftR 5 μM, effectors 100 μM. The method, then:
Next, we assessed which metabolites activate MftR and thus could induce MFT production. To do so, we carried out competitive EMSAs where FAM-labeled Omft and MftR were incubated in the presence of potential effectors. We initially chose our effectors based on cholesterol catabolism, a process that putatively includes MFT biosynthetic genes ([38]). […] Knowing that TFRs have a propensity to be activated by fatty acyl-CoAs ([20]), we expanded our effector screening to include short-chain, medium-chain, and long-chain acyl-CoAs.
Figure 4 Effectors of MftR.A, an EMSA used to screen effectors of MftR. The 6-FAM–labeled Omft region (0.5 μM) was incubated with the MftR (5 μM) in the absence or the presence of effectors (100 μM). Protein–DNA complexes were separated by electrophoresis on 5% polyacrylamide gel. […] B, a representative isothermal titration calorimetry thermogram for the binding of the oleoyl-CoA to MftR regulator (blue) and the control of oleoyl-CoA into buffer (red). Each peak corresponds to the injection of 2.22 μl of 250 μM oleoyl-CoA into the cell containing 16 μM MftR or buffer. The integrated thermogram (blue dots) was fitted to a single-site binding model (black line) to determine the Kd. […] C, a bar graph depicting the ITC measured Kds for various acyl-CoAs. Bars represent the mean of three independent experiments, and the error bars represent the standard deviation of the experiments. 6-FAM, 6-carboxyfluorescein; ITC, isothermal titration calorimetry; Omft, mft operator.
His-tagged MftR was used to assess the protein binding to Pmft–MftA promoter fragment. DNA was mixed with increasing concentrations of the MftR protein in the reaction buffer (50 mM Hepes, 50 mM NaCl 0.1 mM EDTA, and pH 7.5) and incubated at room temperature for 10 min. The reactions were resolved by electrophoresis on a 5% (v/v) nondenaturing polyacrylamide gel in 1× Tris/borate/EDTA buffer at 200 V for 20 min on ice. Prior to the analysis, the gel was prerun for 30 min at 150 V on ice. Results were visualized by GelRed and recorded using Azure Biosystems 600 imaging system.

Test [1] relates to mft BGC (MftA–mCherry reporter). Kind of test: Spot test growth analysis with Pmft–pCherry reporter. The following applies: 7H9 with 0.05% w/v each glucose and OA, compared with glucose alone. The format is cell-based, Mycobacterium smegmatis mc^2155. On the procedure: To directly establish that oleoyl-CoA induces MFT biosynthesis in vivo, a colony dilution experiment was carried out using Msmeg transformed with Pmft–pCherry grown on Middlebrook 7H9 (7H9) supplemented with glucose or oleic acid (OA). We used OA in the growth media since it is well known that bacterial fatty acid shuttle systems convert free fatty acids to the corresponding acyl-CoAs and since Msmeg encodes for at least two known fatty acid transporters ([48], [49]). […] To assess when this occurs in real time, growth curve assays with Msmeg/Pmft–pCherry were carried out. […] We observed the same effect when OA was added to the media after 12 h of incubation. Next, we determined if MFT induction is dependent on the concentration of OA. We carried out a titration series of growth curves where 7H9 media were supplemented with 0.05% w/v glucose and 0.01, 0.02, 0.05, or 0.1% w/v OA. […]
Figure 6 Induction of MFT biosynthesis by oleoyl-CoA in vivo. […] Fluorescence images were obtained simultaneously from two different petri dishes using 585 nm excitation and 635 nm emission wavelengths. […]
A single time point growth assay was standardized for the growth of Msmeg on 7H9 agar plates with various carbon sources supplemented. […] The absorbance was measured and converted to colony-forming units (CFUs) using the standard 3.13 × 10^7 CFU·ml^−1·absorbance^−1 conversion factor ([58]). […]

Test [2] shares this test system. Kind of test: Growth curve assays with Msmeg/Pmft–pCherry. The format is cell-based, Mycobacterium smegmatis mc^2155. The method, then:
To directly establish that oleoyl-CoA induces MFT biosynthesis in vivo, a colony dilution experiment was carried out using Msmeg transformed with Pmft–pCherry grown on Middlebrook 7H9 (7H9) supplemented with glucose or oleic acid (OA). We used OA in the growth media since it is well known that bacterial fatty acid shuttle systems convert free fatty acids to the corresponding acyl-CoAs and since Msmeg encodes for at least two known fatty acid transporters ([48], [49]). […] To assess when this occurs in real time, growth curve assays with Msmeg/Pmft–pCherry were carried out. […] We observed the same effect when OA was added to the media after 12 h of incubation. Next, we determined if MFT induction is dependent on the concentration of OA. We carried out a titration series of growth curves where 7H9 media were supplemented with 0.05% w/v glucose and 0.01, 0.02, 0.05, or 0.1% w/v OA. […] However, in general, increasing concentrations of OA had little effect on the overall production of the MftA–mCherry fusion. The lack of immediate production of MftA–mCherry after the addition of OA and the concentration independence is perplexing. […] Rather, we expect that a subtler and unknown mechanism is at play.
Figure 7 Growth curve assays with Msmeg/Pmft–pCherry.A, absorbance at 600 nm measurements for the 7H9 media supplemented with 0.1% tyloxapol, 50 μg/ml hygromycin, and glucose and/or oleic acid (OA) as carbon sources. Concentrations of carbon sources were glucose only (0.1% w/v), OA only (0.1% w/v), and glucose/OA (0.05% w/v each) where OA was added after 12 h (blue arrow). B, corresponding fluorescence intensities (excitation of 585 nm/emission of 612 nm) of Msmeg/Pmft–pCherry cultures described in A. C, absorbance at 600 nm measurements for dose-dependent addition of OA to the 7H9 media supplemented with 0.05% w/v glucose and 0.01, 0.02, 0.05, 0.1% w/v of OA. D, corresponding fluorescence intensities of Msmeg/Pmft–pCherry cultures described in C. 7H9, Middlebrook 7H9; Msmeg, Mycobacterium smegmatis mc^2155; Pmft, mft promoter.
For fluorescence-based assays, a single Msmeg colony harboring Pmft–pCherry was used to inoculate 25 ml of 7H9 media supplemented with 0.1% tyloxapol, 0.1% w/v glycerol, 50 μg/ml hygromycin, and 0.1% w/v glucose. For cultures containing OA only, 0.1% w/v OA was used. […] The overnight culture was used to inoculate 7H9 media to an absorbance of 0.05 at 600 nm (1 cm pathlength) with carbon sources supplemented as described previously. […] Aliquots were taken every 2 h, and absorbance at 600 nm values were measured. To track the expression of the Pmft–pCherry fusion, fluorescence measurements were taken on a Cary Fluorimeter every 2 h using an excitation of 585 nm and an emission of 612 nm.

The target in a further test is MftR (WT) (Mycolicibacterium smegmatis, UniProt A0QSB5). Kind of test: ITC binding of acyl-CoAs to MftR. Also on record: species or system Mycobacterium smegmatis mc^2155. On the procedure:
ITC was performed using TA Nano ITC. MftR was loaded in the sample cell at the concentration of 16 and 250 μM acyl-CoAs (C12–C18) loaded in the syringe. To minimize the effect of buffer mismatch, the stock concentration of acyl-CoAs was prepared using ITC buffer (50 mM Hepes, 50 mM NaCl, and pH 7.5), and the pH was adjusted to within 0.05 units. In addition, MftR was buffer exchanged into ITC buffer using a PD-10 column (GE Life Sciences). The volume of the titrant added at each injection into the sample cell was 2.22 μl. The time interval between the successive injections was 180 s. The temperature of the cell was kept at 25 °C. The data obtained were fit by independent one-site model using NanoAnalyze Data Analysis, version 3.8.0, that was provided with the instrument.

pKd: −log10 of the molar value.

MftR (WT), sequence (A0QSB5 entry or part of it): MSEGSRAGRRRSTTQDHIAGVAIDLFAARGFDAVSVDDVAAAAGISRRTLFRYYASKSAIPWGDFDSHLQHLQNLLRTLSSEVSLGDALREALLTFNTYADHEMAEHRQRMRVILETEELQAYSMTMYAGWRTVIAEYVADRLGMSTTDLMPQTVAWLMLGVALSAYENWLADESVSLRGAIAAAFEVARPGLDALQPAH

Turning to `CC(C)(COP(=O)(O)OP(=O)(O)OC[C@H]1O[C@@H](n2cnc3c(N)ncnc32)[C@H](O)[C@@H]1OP(=O)(O)O)[C@@H](O)C(=O)NCCC(=O)NCCS` [CoA], the “disruption of the MftR–Omft complex (DNA release)” value (“disruption” below) with MftR–Omft complex was “did not disrupt the MftR–Omft complex”. For the compound `CCCCCCCC/C=C\CCCCCCCC(=O)O` [OA, oleic acid], in test [1], the “fluorescence intensity of colonies” value is “starkly increased”. Further, the “fluorescence intensity in OA titration series” value in test [2] (0.05% w/v OA with 0.05% w/v glucose, within 40 h) is listed as “highest fluorescence intensity”. The “fluorescence intensity compared with the control” value in test [2] (0.1% OA only, cultures at nearly the same absorbance) was “nearly three times”. In addition, in test [2] (OA added to the media after 12 h of incubation (glucose/OA 0.05% w/v each)), the fluorescence intensity entry is “same effect”. Moreover, the “overall production of the MftA–mCherry fusion” value in test [2] (increasing OA 0.01, 0.02, 0.05, 0.1% w/v with 0.05% w/v glucose) is recorded as “little effect”. Turning to `CC(=O)CC(=O)SCCNC(=O)CCNC(=O)[C@H](O)C(C)(C)COP(=O)(O)OP(=O)(O)OC[C@H]1O[C@@H](n2cnc3c(N)ncnc32)[C@H](O)[C@@H]1OP(=O)(O)O` [acetoacetyl-CoA], in the test with MftR–Omft complex, the “disruption” value is recorded as “did not observe DNA release”.

For `CC(C)CCC[C@@H](C)[C@H]1CC[C@H]2[C@@H]3CC=C4C[C@@H](O)CC[C@]4(C)[C@H]3CC[C@]12C` [cholesterol], the “disruption” value in the test on MftR–Omft complex is given as “did not observe DNA release”. As for `CCCCCCCCCCCC(=O)SCCNC(=O)CCNC(=O)[C@H](O)C(C)(C)COP(=O)(O)OP(=O)(O)OC[C@H]1O[C@@H](n2cnc3c(N)ncnc32)[C@H](O)[C@@H]1OP(=O)(O)O` [lauroyl-CoA], the “decrease in binding affinity as compared with oleoyl-CoA” value at MftR (WT) (ITC, WT MftR) is recorded as roughly 10 fold. As for `CCCCCCCCCCCCCC(=O)SCCNC(=O)CCNC(=O)[C@H](O)C(C)(C)COP(=O)(O)OP(=O)(O)OC[C@H]1O[C@@H](n2cnc3c(N)ncnc32)[C@H](O)[C@@H]1OP(=O)(O)O` [myristoyl-CoA], the “disruption” value with MftR–Omft complex is given as “disrupted the MftR–Omft complex”. Turning to `CCCCCCCCCCCCCCCC(=O)SCCNC(=O)CCNC(=O)[C@H](O)C(C)(C)COP(=O)(O)OP(=O)(O)OC[C@H]1O[C@@H](n2cnc3c(N)ncnc32)[C@H](O)[C@@H]1OP(=O)(O)O` [palmitoyl-CoA], the negative logarithm of the Kd (pKd) at MftR (WT) is 5.40 to 5.70. As for `CCC(=O)SCCNC(=O)CCNC(=O)[C@H](O)C(C)(C)COP(=O)(O)OP(=O)(O)OC[C@H]1O[C@@H](n2cnc3c(N)ncnc32)[C@H](O)[C@@H]1OP(=O)(O)O` [propionyl-CoA], the “disruption” value in the test with MftR–Omft complex was “did not observe DNA release”. `CCCCCCCCCCCCCCCCCC(=O)SCCNC(=O)CCNC(=O)[C@H](O)C(C)(C)COP(=O)(O)OP(=O)(O)OC[C@H]1O[C@@H](n2cnc3c(N)ncnc32)[C@H](O)[C@@H]1OP(=O)(O)O` [steroyl-CoA]: the negative-log Kd (pKd) at MftR (WT) is 5.40 to 5.70. As for succinyl-CoA, the “disruption” value with MftR–Omft complex is given as “did not observe DNA release”.
